Here are results for nine compounds from US20100056523A1, “INHIBITORS OF AKT ACTIVITY” (SMITHKLINE BEECHAM CORPORATION, priority 2005, published 2010).

Where a name gives a salt, the structure may show the parent alone. Some results are limits rather than exact numbers.

In data set [1] the test system is BT474 (human breast carcinoma). In words: Methylene Blue Growth Inhibition Assay. The class given is cell-based. As to conditions: BT-474, 72 h, BT474, 3 days incubation. On the procedure:
(§1) Tumor cell lines used in this assay were BT474 (human breast carcinoma) and LNCaP (lymph node metastasis of prostate cancer). HFF (normal human foreskin fibroblast) was also included. All cell lines were cultured in RPMI 1640 media (Invitrogen Corporation 22400-071) containing 10% Fetal Bovine Serum (FBS) at 37° C. in a humidified 5% CO2 incubator. Cells were harvested using trypsin/EDTA, counted using a hemacytometer and plated in 96-well tissue culture plates (Costar 35-3075), 100 uL per well, at the following densities: BT474 15,000 cells/well, LNCaP 5,000 cells/well and HFF 5,000 cells/well. 10 mM stocks of compounds in DMSO were serially diluted in DMSO through nine 3-fold dilutions in 96-well plates (Costar Corning 3363), and stored at −80 C. The next day, compound dilutions were thawed and 4 uL of each transferred to 662 uL RPMI 1640+100 ug/mL gentamicin, resulting in twice the final required test concentrations. 100 uL of compounds diluted in RPMI 1640 were added to all cell lines. The final concentration of DMSO in all wells, including controls, was 0.3%. Cells were incubated at 37 C, 5% CO2 for 3 days. Medium was removed by aspiration. Cell biomass was estimated by staining cells with 80 uL methylene blue (Sigma M9140, 0.5% in 50:50 ethanol:water), and incubating at room temperature for 1 hour. Stain was aspirated and the plates rinsed by immersion in water, then air-dried. Stain was released from cells by adding 100 uL of solubilizing solution (1% N-lauroyl sarcosine, sodium salt, Sigma L5125, in PBS) and incubating at room temperature for at least 30 minutes. Plates were shaken and the optical density at 620 nm was measured on a microplate reader. Percent inhibition of cell growth was calculated relative to vehicle-treated control wells. Concentration of compound that inhibits 50% of cell growth (IC50) was interpolated using non-linear regression (Levenberg-Marquadt) and the equation, y=Vmax*(1−(x̂n/K̂n+x̂n)))+Y2. [Ref: Mager, M. E. (1972) Data Analysis in Biochemistry and Biophysics. New York: Academic Press]

Data set [2] concerns HFF (normal human foreskin fibroblast). In words: Methylene Blue Growth Inhibition Assay. The format is cell-based. To be noted: 72 h, HFF normal cells, 3 days incubation. On the procedure:
as §1

In data set [3] the test system is LNCaP (lymph node metastasis of prostate cancer). In words: Methylene Blue Growth Inhibition Assay. As to conditions: Homo sapiens, 72 h, 3 days incubation. The class given is cell-based. On the procedure: as §1
Data set [4] in a line: Solubility in 50 mM phosphate buffer at pH 7.4. The format is physicochemical. To be noted: suitability for IV dosage forms.

As for `CCn1c(-c2nonc2N)nc2c(C#CC(C)(C)O)ncc(OC[C@@H]3CNCCO3)c21` [Example 4, 4-(2-(4-amino-1,2,5-oxadiazol-3-yl)-1-ethyl-7-{[(2S)-2-morpholinylmethyl]oxy}-1H-imidazo[4,5-c]pyridin-4-yl)-2-methyl-3-butyn-2-ol], the IC50 (commonly the midpoint of a concentration-inhibition curve) in data set [1] is 37 nM; in data set [2], above 25 µM; in data set [3] it was 15 nM. For the same compound, in data set [4], the “solubility (assessment in words)” value is listed as “suitable for formulation into dosage forms for IV administration”.
In the case of `CCn1c(-c2nonc2N)nc2c(C#CC(C)(C)O)ncc(OC[C@H]3CNCCO3)c21` [Example 2, 4-(2-(4-amino-1,2,5-oxadiazol-3-yl)-1-ethyl-7-{[(2R)-2-morpholinylmethyl]oxy}-1H-imidazo[4,5-c]pyridin-4-yl)-2-methyl-3-butyn-2-ol dihydrochloric acid salt], the results for the IC50 in data set [1], in data set [2] and in data set [3] were 1000 nM, above 30 µM and 189 nM, respectively.
Take `CCn1c(-c2nonc2N)nc2c(C#CC(C)(C)O)ncc(OC[C@@H]3CN(C)CCS3)c21` (single isomer, unassigned; enantiomer e1) [Example 7, 4-(2-(4-amino-1,2,5-oxadiazol-3-yl)-1-ethyl-7-{[(4-methyl-2-thiomorpholinyl)methyl]oxy}-1H-imidazo[4,5-c]pyridin-4-yl)-2-methyl-3-butyn-2-ol (enantiomer E1)]: the IC50 is 186 nM in data set [1], above 30 µM in data set [2] and 83 nM in data set [3].
For the compound `CCn1c(-c2nonc2N)nc2c(C#CC(C)(C)O)ncc(OC[C@@H]3CNCCS3)c21` (single isomer, unassigned; enantiomer e1) [Example 3, 4-{2-(4-amino-1,2,5-oxadiazol-3-yl)-1-ethyl-7-[(2-thiomorpholinylmethyl)oxy]-1H-imidazo[4,5-c]pyridin-4-yl}-2-methyl-3-butyn-2-ol dihydrochloride (enantiomer E1)], the IC50 is 6 nM in data set [1], above 30 µM in data set [2] and 4 nM in data set [3]. Moreover, the “solubility (assessment in words)” value in data set [4] is given as “suitable for formulation into dosage forms for IV administration”.
For `CCn1c(-c2nonc2N)nc2c(C#CC(C)(C)O)ncc(OC[C@@H]3CN(C)CCO3)c21` [Example 8, 4-[2-(4-amino-1,2,5-oxadiazol-3-yl)-1-ethyl-7-({[(2S)-4-methyl-2-morpholinyl]methyl}oxy)-1H-imidazo[4,5-c]pyridin-4-yl]-2-methyl-3-butyn-2-ol], the IC50 was 665 nM in data set [1], above 30 µM in data set [2] and 272 nM in data set [3].
On the same counts, the results for `CCn1c(-c2nonc2N)nc2c(C#CC(C)(C)O)ncc(OC[C@H]3CCCN(C)C3)c21` [Example 6, 4-[2-(4-amino-1,2,5-oxadiazol-3-yl)-1-ethyl-7-({[(3S)-1-methyl-3-piperidinyl]methyl}oxy)-1H-imidazo[4,5-c]pyridin-4-yl]-2-methyl-3-butyn-2-ol, dihydrochloride] are 324 nM, 16.8 µM and 53 nM.
Consider `CCn1c(-c2nonc2N)nc2c(C#CC(C)(C)O)ncc(OC[C@H]3CCCNC3)c21` [Example 1, 4-(2-(4-amino-1,2,5-oxadiazol-3-yl)-1-ethyl-7-{[(3S)-3-piperidinylmethyl]oxy}-1H-imidazo[4,5-c]pyridin-4-yl)-2-methyl-3-butyn-2-ol], for which the IC50 was 484 nM in data set [1], above 20 µM in data set [2] and 16 nM in data set [3]. In data set [4], the “solubility (assessment in words)” value is “suitable for formulation into dosage forms for IV administration”.
`CCn1c(-c2nonc2N)nc2c(C#CC(C)(C)O)ncc(OCC3CCNC3)c21` (stereo not shown) [Example 5, 4-[2-(4-amino-1,25-oxadiazol-3-yl)-1-ethyl-7-[(3-Pyrrolidinylmethyl)oxy]-1H-imidazo[4,5-c]pyridin-4-yl]-2-methyl-3-butyn-2-ol, bis-trifluoroacetic acid salt]: the IC50 amounted to 1030 nM in data set [1], 20.1 µM in data set [2] and 459 nM in data set [3].
As for `CCn1c(-c2nonc2N)nc2c(C#CC(C)(C)O)ncc(OCC3CNCC(C)O3)c21` (stereo in doubt) [Example 9, 4-[2-(4-amino-1,2,5-oxadiazol-3-yl)-1-ethyl-7-({[(2R)-6-methyl-2-morpholinyl]methyl}oxy)-1H-imidazo[4,5-c]pyridin-4-yl]-2-methyl-3-butyn-2-ol, dihydrochloride], the half-inhibitory concentration (IC50) in data set [1] turned out to be 80 nM; in data set [2], 9.39 µM; in data set [3], 49 nM. Also, the “solubility (assessment in words)” value in data set [4] is on record as “suitable for formulation into dosage forms for IV administration”.
